US20240336566A1, “CRYSTALLINE FORMS OF A COMPOUND FOR THE TARGETED DEGRADATION OF THE ANDROGEN RECEPTOR” (Arvinas Operations, Inc., priority 2023, published 2024)
Where two headings read alike, the source gives them in different places.

Assay: Solvent solubility screen of Compound A (aliquot addition, HPLC of saturated solutions)
Type: physicochemical
Set-up: key to XRPD: A: Amorphous; P1: Pattern 1; P2: Pattern 2; *Poorly crystalline; + p1: some pattern 1 peaks
Conditions: for solubility: thermodynamic from solid; for XRPD: solid from solubility screen
Protocol: A known volume aliquot (typically 5 volumes) of solvent was added to approximately 5 mg of Compound A. See Table 14 for the selected solvents for the solvent solubility screen.
Between each addition, the mixture was checked for dissolution and where no dissolution was apparent, the mixture was heated to ca. 40° C. and checked again. This procedure was continued until dissolution was observed or until 100 volumes of solvent had been added.
Where dissolution was not observed, solids were isolated centrifugally and analyzed by XRPD. The saturated solutions were analyzed by HPLC to obtain the solubility.

solubility (Acetonitrile, 40 °C, organic solvent or mixture, Acetonitrile, read-out: Approximate Solubility): 0.995 mg/mL
solubility (Anisole, organic solvent or mixture, Anisole, read-out: Approximate Solubility): 25 mg/mL
solubility (Butyl acetate, 40 °C, organic solvent or mixture, Butyl acetate, read-out: Approximate Solubility): 0.209 mg/mL
solubility (DCM, organic solvent or mixture, DCM, read-out: Approximate solubility): ~50 mg/mL
solubility (DCM, organic solvent or mixture, DCM, read-out: solubility): 50 to 100 mg/mL
solubility (DCM:methanol (50:50% v/v), organic solvent or mixture, DCM:methanol (50:50% v/v), read-out: solubility): 50 to 100 mg/mL
solubility (DCM:methanol (75:25% v/v), organic solvent or mixture, DCM:methanol (75:25% v/v), read-out: solubility): > 100 mg/mL
solubility (DMA, organic solvent or mixture, DMA, read-out: solubility): > 100 mg/mL
solubility (DMF, organic solvent or mixture, DMF, read-out: solubility): > 100 mg/mL
solubility (DMSO, organic solvent or mixture, DMSO, read-out: solubility): > 100 mg/mL
solubility (Dichloromethane, organic solvent or mixture, Dichloromethane, read-out: Approximate Solubility): 50 mg/mL
solubility (N,N′-dimethylacetamide, organic solvent or mixture, N,N′-Dimethylacetamide, read-out: Approximate Solubility): 100 mg/mL
solubility (N,N′-dimethylformamide, organic solvent or mixture, N,N′-Dimethylformamide, read-out: Approximate Solubility): 100 mg/mL
solubility (N-methylpyrrolidone, organic solvent or mixture, N-Methylpyrrolidone, read-out: Approximate Solubility): 50 mg/mL
solubility (NMP, organic solvent or mixture, NMP, read-out: solubility): 50 to 100 mg/mL
solubility (THF, organic solvent or mixture, THF, read-out: Approximate solubility): ~50 mg/mL
solubility (THF, organic solvent or mixture, THF, read-out: solubility): 50 to 100 mg/mL
solubility (THF:water (98:2% v/v), organic solvent or mixture, THF:water (98:2% v/v), read-out: solubility): 50 to 100 mg/mL
solubility (acetone:water (90:10% v/v), 40 °C, organic solvent or mixture, Acetone:Water (90:10% v/v), read-out: Approximate Solubility): 5.68 mg/mL
solubility (acetonitrile:water (75:25% v/v), 40 °C, organic solvent or mixture, Acetonitrile:Water (75:25% v/v), read-out: Approximate Solubility): 1.05 mg/mL
solubility (anisole, organic solvent or mixture, anisole, read-out: solubility): 25 to 50 mg/mL
solubility (dichloromethane:methanol (50:50% v/v), organic solvent or mixture, Dichloromethane:Methanol (50:50% v/v), read-out: Approximate Solubility): 50 mg/mL
solubility (dichloromethane:methanol (50:50% v/v), organic solvent or mixture, Dichloromethane:Methanol (50:50% v/v), read-out: Approximate solubility): ~50 mg/mL
solubility (dichloromethane:methanol (75:25% v/v), organic solvent or mixture, Dichloromethane:Methanol (75:25% v/v), read-out: Approximate Solubility): 100 mg/mL
solubility (diethyl ether, 40 °C, organic solvent or mixture, Diethyl ether, read-out: Approximate Solubility): 0.002 mg/mL
solubility (dimethylsulfoxide, organic solvent or mixture, Dimethylsulfoxide, read-out: Approximate Solubility): 100 mg/mL
solubility (ethanol, 40 °C, organic solvent or mixture, Ethanol, read-out: Approximate Solubility): 0.276 mg/mL
solubility (ethanol:water (50:50% v/v), 40 °C, aqueous with cosolvent or surfactant or cyclodextrin, Ethanol:Water (50:50% v/v), read-out: Approximate Solubility): 0.0192 mg/mL
solubility (ethyl acetate, 40 °C, organic solvent or mixture, Ethyl acetate, read-out: Approximate Solubility): 0.444 mg/mL
solubility (ethyl formate, 40 °C, organic solvent or mixture, Ethyl formate, read-out: Approximate Solubility): 1.01 mg/mL
solubility (heptane, 40 °C, organic solvent or mixture, Heptane, read-out: Approximate Solubility): 0.0017 mg/mL
solubility (isopropyl acetate, organic solvent or mixture, Isopropyl acetate, read-out: Approximate Solubility): 0.174 mg/mL
solubility (methanol, organic solvent or mixture, Methanol, read-out: Approximate Solubility): 0.437 mg/mL
solubility (methylisobutyl ketone, organic solvent or mixture, Methylisobutyl ketone, read-out: Approximate Solubility): 0.53 mg/mL
solubility (organic solvent or mixture, remaining 25 solvent systems tested, read-out: solubility): < 5 mg/mL
XRPD (1,4-Dioxane): A
XRPD (1-Butanol): P1
XRPD (1-Propanol): P1
XRPD (2-Butanone (MEK)): P1
XRPD (2-Ethoxyethanol): P1
XRPD (3-Methyl-1-butanol): A
XRPD (Acetone): P1
XRPD (Acetonitrile:Water (75:25% v/v)): A
XRPD (Butyl acetate): P1
XRPD (Dichloromethane): A
XRPD (Dichloromethane:Methanol (50:50% v/v)): A
XRPD (Dichloromethane:Methanol (75:25% v/v)): A
XRPD (Ethanol): P1
XRPD (Ethyl acetate): P1
XRPD (Heptane): A
XRPD (Toluene): A
XRPD (Water): A
XRPD (tert-Butylmethyl ether): A
solubility (tert-Butylmethyl ether, organic solvent or mixture, tert-Butylmethyl ether, read-out: Approximate Solubility): 0.108 mg/mL
solubility (tetrahydrofuran, organic solvent or mixture, Tetrahydrofuran, read-out: Approximate Solubility): 50 mg/mL
solubility (tetrahydrofuran:water (98:2% v/v), organic solvent or mixture, Tetrahydrofuran:Water (98:2% v/v), read-out: Approximate Solubility): 50 mg/mL
solubility (tetrahydrofuran:water (98:2% v/v), organic solvent or mixture, Tetrahydrofuran:Water (98:2% v/v), read-out: Approximate solubility): ~50 mg/mL
solubility (toluene, organic solvent or mixture, Toluene, read-out: Approximate Solubility): 0.0298 mg/mL
solubility (water, Water, read-out: Approximate Solubility): 0.0005 mg/mL
SMILES: COc1cc(O[C@H]2C(C)(C)[C@H](NC(=O)c3ccc(N4CCC(CN5CCN(c6ccc(C(=O)N[C@H]7CCC(=O)NC7=O)c(F)c6)CC5)CC4)cc3)C2(C)C)ccc1C#N [Compound A, 4-(4-((1-(4-(((1R,3R)-3-(4-cyano-3-methoxyphenoxy)-2,2,4,4-tetramethylcyclobutyl)carbamoyl)phenyl)piperidin-4-yl)methyl)piperazin-1-yl)-N—((S)-2,6-dioxopiperidin-3-yl)-2-fluorobenzamide]
